Reference: US10500222B2, “Compositions and methods relating to treatment of infection” (Wayne State University, priority 2015, dated 2019)
Entries after “also recorded” stand apart in the source; their conditions may differ.

What was measured:
Format in all cases: in vivo, C57BL/6 (B6) mice
[1] = system: P. aeruginosa KEI 1025 infected cornea; experiment: Ocular response to bacterial infection (clinical score, slit lamp), KEI 1025 keratitis; details: subconj. 1 day before infection + IP 1 and 3 days p.i., vs PBS
Text: P. aeruginosa strains, KEI 1025, a non-cytotoxic clinical isolate strain expressing exoT and exoS, and not expressing exoU, described in Estrellas P S, Jr., et al., Curr Eye Res. 2000; 20:157-165 (obtained from Kresge Eye Institute, Detroit, Mich.), and a cytotoxic strain, 19660, expressing exoU, described in Finck-Barbancon V, et al., Mol Microbiol. 1997; 25:547-557; and Fleiszig S M, et al., Infect Immun. 1997; 65:579-586 (obtained from American Type Culture Collection, ATCC, Manassas, Va.), were grown in peptone tryptic soy broth (PTSB) medium in a rotary shaker water bath at 37° C. and 150 rpm for 18 h to an optical density (measured at 540 nm) between 1.3-1.8. Bacterial cultures were pelleted by centrifugation at 5,500 g for 10 min. Pellets were washed once with sterile saline, re-centrifuged, re-suspended and diluted in sterile saline. Anesthetized (using anhydrous ethyl ether) mice were placed beneath a stereoscopic microscope at 40× magnification. The left cornea was scarified with three 1-mm incisions using a sterile 25^5/8 gauge needle. The wounded corneal surface was topically treated with 5 μl containing 1×10^7 CFU/μl (KEI 1025) or 1×10^6 CFU/μl (ATCC strain 19660) of the P. aeruginosa suspension.
An established corneal disease grading scale, described in detail in Hazlett L D, et al., Invest Ophthalmol Vis Sci. 1987; 28:1978-1985, was used to assign a clinical score value to each infected eye at 1, 3 and 5 days post infection (p.i.). Clinical scores were designated as: 0=clear or slight opacity, partially or fully covering the pupil; +1=slight opacity, fully covering the anterior segment; +2=dense opacity, partially or fully covering the pupil; +3=dense opacity, covering the entire anterior segment; and +4=corneal perforation or phthisis. Clinical scores were used to statistically compare disease severity and were accompanied by photographs using a slit lamp (5 days p.i.) to confirm and illustrate the response.
(§1) The left eyes of B6 mice (n=5/group/time) were injected with 5 μl of 2 μg/μl glycyrrhizin (GLY) (Sigma-Aldrich, St. Louis, Mo.) or PBS (control) subconjunctivally, one day before infection. Similar treatment was done using carbenoxolone (CBX) (Sigma-Aldrich, St. Louis, Mo.). All mice were injected intraperitoneally (IP) at 1 and 3 days p.i. with 100 μl of GLY (2 μg/μl) or CBX (1 μg/μl). PBS served as control for all these experiments. In a separate similar experiment mice were treated one day before infection with GLY subconjunctivally and injected intraperitoneally (i.p.) with GLY plus recombinant (r) HMGB1 (1 μg/100 μl) or GLY plus PBS. IP injections were similarly given at 1 and 3 days p.i. In an additional experiment, KEI 1025 infected B6 mice were treated with 5 μl of 2 μg/μl GLY subconjunctivally at 6 hours p.i. and injected intraperitoneally at 1 and 3 days p.i. with 100 μl of GLY (2 μg/μl).

[2] = system: mRNA levels in P. aeruginosa KEI 1025 infected cornea; experiment: Real time RT-PCR of cornea, KEI 1025 infection
Experimental: as §1
KEI 1025 or ATCC strain 19660 infected GLY or PBS treated mice were sacrificed at 5 days p.i. and the normal, contralateral (uninfected) and infected cornea was harvested. For each cornea, total RNA was isolated (RNA STAT-60™; Tel-Test, Friendswood, Tex.) according to the manufacturer's instructions. Upon spectrophotometric quantification at 260 nm, 1 μg of each RNA sample was reverse transcribed using Moloney-murine leukemia virus (M-MLV) reverse transcriptase (Invitrogen, Carlsbad, Calif.) to produce a cDNA template for the PCR reaction. cDNA products were diluted 1:25 with diethylpyrocarbonate (DEPC)-treated water. A 2 μl aliquot of diluted cDNA was used for the real-time RT-PCR reaction with Real-Time SYBR® Green/Fluorescein PCR Master Mix (Bio-Rad) and primer concentrations of 10 μM (total 10 μl reaction volume). After a pre-programmed hot start cycle (3 min at 95° C.), the parameters used for PCR amplification were: 15 sec at 95° C. and 60 sec at 60° C. with the cycles repeated 45 times. Optimal conditions for PCR amplification of cDNA were established using routine methods. mRNA levels of HMGB1, RAGE, IL-1β, TLR2, TLR4, CXCL2, TNF-α, NLR family pyrin domain containing 3 (NLRP3), NLR family CARD domain containing 4 (NLRC4), IL-12, TGF-β, IL-10, single Ig IL-1-related receptor (SIGIRR) and interleukin 1 receptor-like 1 (ST2) were tested by real-time RT-PCR (CFX Connect™ Real-Time PCR Detection System; Bio-Rad, Richmond, Calif.). The fold differences in gene expression were calculated after normalization to β-actin and expressed as the relative mRNA concentration+SEM.

[3] = system: P. aeruginosa KEI 1025; experiment: Quantification of viable bacteria (plate count), KEI 1025 infection; details: pretreatment subconj. + IP, vs PBS
Experimental: as §1
Mice were sacrificed at 3 and 5 days p.i. and KEI 1025 or ATCC strain 19660 infected corneas from GLY, CBX or PBS (or GLY+/−rHMGB1) treated B6 mice were harvested (n=5/group/time). Each cornea was homogenized in 1 ml of sterile saline (0.85% NaCl, pH 7.4) containing 0.25% BSA. A 100 μl of the corneal homogenate was serially diluted (1:10) in sterile saline containing 0.25% BSA. Selected dilutions were plated in triplicate on selective culture medium (Difco™ Pseudomonas Isolation Agar, BD Biosciences, Inc., Franklin Lakes, N.J.). Plates were incubated overnight at 37° C. and viable bacteria manually counted. Results are reported as log10 CFU/cornea±SEM.

[4] = KEI 1025, pretreatment subconj. + IP, infected cornea 5 days p.i., vs PBS

`CC1(C)[C@@H](OC(=O)CCC(=O)O)CC[C@]2(C)[C@H]3C(=O)C=C4[C@@H]5C[C@@](C)(C(=O)O)CC[C@]5(C)CC[C@@]4(C)[C@]3(C)CC[C@@H]12` [CBX, carbenoxolone] was tested, and the clinical scores ([1]; 3 days p.i.) was “statistically significant reduction in disease scores; also recorded: only reduced at 3 days”, the clinical scores ([1]; 5 days p.i.) was “not at 5 (p=0.2) days p.i” and the “opacity, slit lamp photographs” value ([1]; 5 days p.i.) was “reduced opacity”. The “CXCL2 mRNA levels” value [2, 4] was “reduced”, the “HMGB1 mRNA levels” value [2, 4] was “no difference” and the “IL-1β mRNA levels” value [2, 4] was “significantly reduced”. The “IL-12 mRNA levels” value [2, 4] was “only GLY reduced”, the “NLRC4 mRNA levels” value [2, 4] was “only GLY reduced” and the “NLRP3 mRNA levels” value [2, 4] was “reduced”. The “SIGIRR mRNA levels” value [2, 4] was “increased modestly”, the “TGF-β mRNA levels” value [2, 4] was “reduced” and the “TLR2 mRNA levels” value [2, 4] was “did not differ from PBS controls”. The “TLR4 mRNA” value [2, 4] was “reduced”, the “TNF-α mRNA levels” value [2, 4] was “reduced by both GLY and CBX, but only GLY (p<0.01) was significant” and the “mRNA levels of the other molecules tested” value ([2]; normal (uninfected) corneas, among PBS, CBX, GLY groups) was “no differences”. The “bacterial load in the corneas (plate count)” value ([3]; 3 days p.i.) was “not at 3 days p.i” and the “bacterial load in the corneas (plate count)” value ([3]; 5 days p.i.) was “significantly reduced”.
